Test results reported in PubChem BioAssay AID2060332 (Molecular Pharmacology Branch, DTP, NCI, 2025).

Tested on: LG0567-F671-PDC multi-cell spheroid viability
Test: Anticancer human tumor LG0567-F671-PDC patient-derived lung adenocarcinoma cell line growth inhibition [IpAb]
Conditions: for IC50: curve of first compound; for viability, T/C: stronger effect = lower value
Source text: Combinatorial screen of targeted agents with ipatasertib and abemaciclib in multi-cell type tumor spheroids
A high-throughput screen of multi-cell type tumor spheroids was designed to identify active combinations of targeted small molecules and ipatasertib or abemaciclib. Complex spheroids include a stromal component modeled by human endothelial cells (HUVEC) and fibroblasts modeled by human mesenchymal stem cells (MSCs). The concentration ranges selected for each drug and investigational agent were based upon clinically achievable concentrations if the clinical Cmax of the agent was known.
Compounds. The drugs and investigational agents: ipatasertib (NSC767898), abemaciclib(NSC768073), selumetinib (NSC741078), trametinib (758246), adavosertib (NSC754352), everolimus (NSC733504), sapanisertib (NSC764658), vemurafenib (NSC761431), venetoclax (NSC766270), copanlisib (NSC809693), apelisib (NSC765974), palbociblib (NSC758247), vemurafenib (NSC761431), dabrafenib (NSC764134), ravoxertinib (NSC781343), BMS-387032 (NSC767048), sotorasib (NSC818433), talazoparib (NSC767125) and afursertib (NSC778305), were obtained from the National Cancer Institute (NCI) Developmental Therapeutics Program Chemical Repository. The FDA-approved anticancer drug set is available from the NCI Developmental Therapeutics Program. […] The stock solutions were prepared in dimethyl sulfoxide (DMSO, Sigma-Aldrich, St. Louis, MO, cat. D2650) at 800-fold the tested concentration and stored at -70 degrees C prior to their use. All drugs and investigational agents were tested over a range starting from a high concentration at or near the clinical Cmax and decreasing in half-log increments. If the clinical Cmax for an agent had not been determined, the highest concentration tested was 10 microM.
NCI60 Cell Culture. NCI60 cell lines were obtained from the NCI Developmental Therapeutics Program Tumor Repository. For each lot of cells, the Repository performed Applied Biosystems AmpFLSTR Identifiler testing with PCR amplification to confirm consistency with the published Identifier STR profile for each cell line. Cells were kept in continuous culture for no more than 20 passages. The optimal seeding densities for each of the cell lines at each time point assessed were determined prior to performing the concentration response studies. Briefly, the NCI60 human tumor lines were grown as monolayers in RPMI 1640 medium supplemented with 10% FBS and 2 mmol/L L-glutamine.
An additional 9 lines were from the NCI60 cell line panel including MDA-MB-231 breast carcinoma, MDA-MB-468 breast carcinoma, MCF7 breast carcinoma, Hs578T breast carcinoma, MALME-3M melanoma, SK-MEL-2 melanoma, SK-OV-3 ovarian carcinoma, DU-145 prostate carcinoma, PC-3 prostate carcinoma, all cell lines along with major genetic alterations are listed on Table 2. Pooled donor human umbilical vein endothelial cells (HUVEC, Lonza, cat. CC-2519) and human mesenchymal stem cells (hMSC, Lonza, cat. PT-2501) were purchased from Lonza (Walkersville, MD).
PDMR cell lines were grown in complete medium (DC medium): Dulbecco's modified Eagle's medium (DMEM)/F12 supplemented with 5% fetal bovine serum (FBS), 2 mM L-glutamine, 100 U/mL penicillin and 100 µg/ml streptomycin, 0.4 µg/ml hydrocortisone, 10 ng/ml epidermal growth factor (EGF) recombinant human protein, 24 µg/mL adenine, and 0.1 mg/mL primocin. During culture from frozen stock vials, PDMR cells were cultured in the same medium containing 10 µM Y-27632 (see Table 3). The PDCs were cultured in complete DMEM/F12 media without 10 microM Y-27632 dihydrochloride for at least two passages prior to the screen. The pooled donor HUVEC and hMSC were cultured in endothelial cell growth medium 2 (PromoCell, Heidelberg, Germany, cat. C-22011) and mesenchymal stem cell growth medium 2 (PromoCell, cat. C-28009), respectively. For all experiments, HUVEC and hMSC were used at passages </=5.
[…]
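Note: viability read after 7 days of drug exposure.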
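Throughout, for viability, T/C: 100% = DMSO vehicle control luminescence.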

Q: With `C=CCn1c(=O)c2cnc(Nc3ccc(N4CCN(C)CC4)cc3)nc2n1-c1cccc(C(C)(C)O)n1` + CC(C)NCC(C(=O)N1CCN(c2ncnc3c2C(C)CC3O)CC1)c1ccc(Cl)cc1 as the compound, how does the IC50 (second compound 0.1 µM) read?
A: 0.479 µM

Q: And the IC50 (second compound 0.316 µM)?
A: 0.803 µM

Q: What about the IC50 (second compound 1 µM) of the same compound?
A: 0.626 µM

Q: And the IC50 (second compound 3.16 µM)?
A: 1.05 µM

Q: And the IC50 (second compound 10 µM)?
A: 0.646 µM

Q: And the viability, T/C (second compound 0.1 µM, first compound 0.0316 µM)?
A: 80.7%

Q: What about the viability, T/C (second compound 0.1 µM, first compound 0.1 µM) of the same compound?
A: 78.5%

Q: And the viability, T/C (second compound 0.1 µM, first compound 0.316 µM)?
A: 52.1%

Q: What about the viability, T/C (second compound 0.1 µM, first compound 1 µM) of the same compound?
A: 44.6%

Q: And the viability, T/C (second compound 0.1 µM, first compound 3.16 µM)?
A: 34.6%

Q: What about the viability, T/C (second compound 0.1 µM, first compound 10 µM) of the same compound?
A: 33.4%

Q: And the viability, T/C (second compound 0.316 µM, first compound 0.0316 µM)?
A: 75%

Q: And the viability, T/C (second compound 0.316 µM, first compound 0.1 µM)?
A: 73.1%

Q: And the viability, T/C (second compound 0.316 µM, first compound 0.316 µM)?
A: 53.3%

Q: And the viability, T/C (second compound 0.316 µM, first compound 1 µM)?
A: 50.5%

Q: What about the viability, T/C (second compound 0.316 µM, first compound 3.16 µM) of the same compound?
A: 36.2%

Q: What about the viability, T/C (second compound 0.316 µM, first compound 10 µM) of the same compound?
A: 23.6%

Q: And the viability, T/C (second compound 1 µM, first compound 0.0316 µM)?
A: 69.6%

Q: And the viability, T/C (second compound 1 µM, first compound 0.1 µM)?
A: 84.6%

Q: And the viability, T/C (second compound 1 µM, first compound 0.316 µM)?
A: 65.2%

Q: And the viability, T/C (second compound 1 µM, first compound 1 µM)?
A: 37.8%

Q: What about the viability, T/C (second compound 1 µM, first compound 3.16 µM) of the same compound?
A: 37.6%

Q: What about the viability, T/C (second compound 1 µM, first compound 10 µM) of the same compound?
A: 20.2%

Q: What about the viability, T/C (second compound 3.16 µM, first compound 0.0316 µM) of the same compound?
A: 79.1%

Q: What about the viability, T/C (second compound 3.16 µM, first compound 0.1 µM) of the same compound?
A: 83%

Q: What about the viability, T/C (second compound 3.16 µM, first compound 0.316 µM) of the same compound?
A: 59.1%

Q: What about the viability, T/C (second compound 3.16 µM, first compound 1 µM) of the same compound?
A: 50.8%

Q: And the viability, T/C (second compound 3.16 µM, first compound 3.16 µM)?
A: 36.9%

Q: What about the viability, T/C (second compound 3.16 µM, first compound 10 µM) of the same compound?
A: 19.5%

Q: And the viability, T/C (second compound 10 µM, first compound 0.0316 µM)?
A: 72.8%

Q: What about the viability, T/C (second compound 10 µM, first compound 0.1 µM) of the same compound?
A: 76%

Q: What about the viability, T/C (second compound 10 µM, first compound 0.316 µM) of the same compound?
A: 51.7%

Q: And the viability, T/C (second compound 10 µM, first compound 1 µM)?
A: 49.1%

Q: And the viability, T/C (second compound 10 µM, first compound 3.16 µM)?
A: 31.9%

Q: And the viability, T/C (second compound 10 µM, first compound 10 µM)?
A: 26.8%

Q: How did the IC50 (second compound 0.1 µM) turn out when `Cn1cnc2c(F)c(Nc3ccc(Br)cc3Cl)c(C(=O)NOCCO)cc21` + CC(C)NCC(C(=O)N1CCN(c2ncnc3c2C(C)CC3O)CC1)c1ccc(Cl)cc1 was run?
A: 0.0157 µM

Q: And the IC50 (second compound 0.316 µM)?
A: < 0.00949 µM

Q: What about the IC50 (second compound 1 µM) of the same compound?
A: < 0.00949 µM

Q: And the IC50 (second compound 3.16 µM)?
A: < 0.00949 µM

Q: And the IC50 (second compound 10 µM)?
A: < 0.00949 µM

Q: What about the viability, T/C (second compound 0.1 µM, first compound 0.00949 µM) of the same compound?
A: 59.6%

Q: What about the viability, T/C (second compound 0.1 µM, first compound 0.03 µM) of the same compound?
A: 36.4%

Q: And the viability, T/C (second compound 0.1 µM, first compound 0.0949 µM)?
A: 29.3%

Q: And the viability, T/C (second compound 0.1 µM, first compound 0.3 µM)?
A: 18.2%

Q: What about the viability, T/C (second compound 0.1 µM, first compound 0.949 µM) of the same compound?
A: 18.6%

Q: And the viability, T/C (second compound 0.1 µM, first compound 3 µM)?
A: 11.1%

Q: What about the viability, T/C (second compound 0.316 µM, first compound 0.00949 µM) of the same compound?
A: 43.4%

Q: What about the viability, T/C (second compound 0.316 µM, first compound 0.03 µM) of the same compound?
A: 32.4%

Q: And the viability, T/C (second compound 0.316 µM, first compound 0.0949 µM)?
A: 23.2%

Q: What about the viability, T/C (second compound 0.316 µM, first compound 0.3 µM) of the same compound?
A: 18%

Q: And the viability, T/C (second compound 0.316 µM, first compound 0.949 µM)?
A: 14.3%

Q: What about the viability, T/C (second compound 0.316 µM, first compound 3 µM) of the same compound?
A: 5.52%

Q: What about the viability, T/C (second compound 1 µM, first compound 0.00949 µM) of the same compound?
A: 34.6%

Q: What about the viability, T/C (second compound 1 µM, first compound 0.03 µM) of the same compound?
A: 32.3%

Q: And the viability, T/C (second compound 1 µM, first compound 0.0949 µM)?
A: 23.9%

Q: And the viability, T/C (second compound 1 µM, first compound 0.3 µM)?
A: 21.3%

Q: And the viability, T/C (second compound 1 µM, first compound 0.949 µM)?
A: 10.7%

Q: And the viability, T/C (second compound 1 µM, first compound 3 µM)?
A: 8.24%

Q: And the viability, T/C (second compound 3.16 µM, first compound 0.00949 µM)?
A: 44.9%

Q: What about the viability, T/C (second compound 3.16 µM, first compound 0.03 µM) of the same compound?
A: 43.4%

Q: What about the viability, T/C (second compound 3.16 µM, first compound 0.0949 µM) of the same compound?
A: 36.4%

Q: What about the viability, T/C (second compound 3.16 µM, first compound 0.3 µM) of the same compound?
A: 16.4%

Q: And the viability, T/C (second compound 3.16 µM, first compound 0.949 µM)?
A: 14.8%

Q: What about the viability, T/C (second compound 3.16 µM, first compound 3 µM) of the same compound?
A: 7.66%

Q: What about the viability, T/C (second compound 10 µM, first compound 0.00949 µM) of the same compound?
A: 43.4%

Q: What about the viability, T/C (second compound 10 µM, first compound 0.03 µM) of the same compound?
A: 28.7%

Q: And the viability, T/C (second compound 10 µM, first compound 0.0949 µM)?
A: 26.7%

Q: What about the viability, T/C (second compound 10 µM, first compound 0.3 µM) of the same compound?
A: 21.5%

Q: And the viability, T/C (second compound 10 µM, first compound 0.949 µM)?
A: 11.9%

Q: What about the viability, T/C (second compound 10 µM, first compound 3 µM) of the same compound?
A: 8.12%
